Several values for one entry are separate records, joined by “and”; a condition that tells them apart may be missing. Equal values may be shown once.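 A five-concentration, 48-hour dose response in 96-well plates underlies each endpoint, interpolated linearly between surrounding concentrations. GI50: concentration for 50% inhibition of growth. At the TGI there is no net growth.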

We go through 16 molecules from PubChem BioAssay (NCI).

The subject of one test is MDA-MB-231 breast. Description: NCI tumour cell line growth inhibition, 48 h.
As for `O=C1NC(=O)C(N2C(=O)c3ccccc3C2=O)CC1O` (stereo not drawn), the GI50 was above 100000 nM and the TGI was above 100 µM.

Regarding `COc1ccc2c(c1)N(CCO)C1=C(C(=O)OC1)C2c1cccc(F)c1` (stereo not drawn), the GI50 is 1100 nM and the TGI was above 19.3 µM.

`C/C(=C\c1ccc2ccccc2c1)[N+](=O)[O-]`: the GI50 is 2020 nM and the TGI is 3.92 µM.

For `C=CC(=O)Nc1cccc(Oc2nc(Nc3ccc(N4CCN(C)CC4)cc3)nc3ccsc23)c1`, the GI50 is 2250 nM and 2240 nM; the TGI is 6.44 µM and 5.78 µM.

As to `OCc1ccc(N2CCCC2c2ccccc2)cc1Cl` (stereo not drawn), the GI50 was 5580 nM and the TGI is 24.9 µM.

In turn, `COC1C=COC2(C)Oc3c(C)c(O)c4c(c3C2=O)/C(=N/C2CCC(O)OC2C)C=C(NC(=O)/C(C)=C\C(=O)C2CC2C(O)C(C)C(O)C(C)C(OC(C)=O)C1C)C4=O` (stereo not drawn) registered a TGI of 5.69 µM.

As to `CC(=O)/C=C/c1cn(C(=O)OC(C)(C)C)c2ccc(Br)cc12`, the GI50 is 18900 nM and the TGI was determined as 43.8 µM.

With `CCOc1ccccc1C(=O)N1CCN(c2cc(Cl)cc(Cl)c2)CC1`, the GI50 was 44.4 nM and the TGI was found to be 12.3 µM.

With `NC(CSC1c2ccccc2-c2ccccc21)C(=O)O` (stereo not drawn), the TGI was above 100 µM.

For the molecule `O=C1c2c(c3c4ccccc4[nH]c3c3ccc4ccccc4c23)C(=O)N1CCN1CCNCC1`, the GI50 was 1720 nM and the TGI turned out to be 3.27 µM.

Turning to `Cc1cc(S(=O)(=O)/N=C(/N)Nc2ccccc2O)c(SCc2ccccc2)cc1Cl`, the GI50 was 14800 nM and the TGI came out at 32.2 µM.

Turning to `O=C1CCC(N2Cc3cc(CNC(=O)C(F)(F)c4ccc(Cl)cc4)ccc3C2=O)C(=O)N1` (stereo not drawn), the GI50 is 67.9 nM and the TGI was above 100 µM.

In the case of `O=C(O)CN1CCN(CC(=O)O)CC(=O)[O][Hg][O]C(=O)C1`, the GI50 was 19600 nM and the TGI came out at 35.3 µM.

Turning to `CCOC(=O)C1=C(C)N(c2ccc(Cl)cc2)[C@]2(C#N)C(O)=C(Cl)C(Cl)=C(O)[C@]12C#N`, the GI50 was 38800 nM and the TGI was above 100 µM.

On to `O=C(OCc1ccc2ccccc2n1)c1cn(C2CC2)c2cc(N3CCN(Cc4ccc5ccccc5n4)CC3)c(F)cc2c1=O`, for which the GI50 is above 46900 nM and the TGI was above 84 µM.

Molecule `O=C(O)c1ccc(C(=O)c2ccccc2)c(C(=O)O)c1` registered a TGI above 100 µM.

The next test has as its system UO-31 renal. Description: NCI tumour cell line growth inhibition, 48 h.
Turning to `O=C1NC(=O)C(N2C(=O)c3ccccc3C2=O)CC1O` (stereo not drawn), the GI50 is above 100000 nM and the TGI was above 100 µM.

As for `COc1ccc2c(c1)N(CCO)C1=C(C(=O)OC1)C2c1cccc(F)c1` (stereo not drawn), the GI50 was 413 nM and the TGI was above 50 µM.

As for `C/C(=C\c1ccc2ccccc2c1)[N+](=O)[O-]`, the GI50 is 1390 nM and the TGI came to 2.9 µM.

As to `C=CC(=O)Nc1cccc(Oc2nc(Nc3ccc(N4CCN(C)CC4)cc3)nc3ccsc23)c1`, the GI50 is 962 nM and 1110 nM; the TGI was 3.69 µM and 3.38 µM.

For `OCc1ccc(N2CCCC2c2ccccc2)cc1Cl` (stereo not drawn), the GI50 is 9280 nM and the TGI turned out to be 27.4 µM.

The molecule `COC1C=COC2(C)Oc3c(C)c(O)c4c(c3C2=O)/C(=N/C2CCC(O)OC2C)C=C(NC(=O)/C(C)=C\C(=O)C2CC2C(O)C(C)C(O)C(C)C(OC(C)=O)C1C)C4=O` (stereo not drawn) had a TGI of 5.59 µM.

For the molecule `CC(=O)/C=C/c1cn(C(=O)OC(C)(C)C)c2ccc(Br)cc12`, the GI50 is 10300 nM and the TGI was found to be 51.9 µM.

As to `CCOc1ccccc1C(=O)N1CCN(c2cc(Cl)cc(Cl)c2)CC1`, the GI50 is 97.8 nM and the TGI is 16 µM.

As to `NC(CSC1c2ccccc2-c2ccccc21)C(=O)O` (stereo not drawn), the TGI was above 100 µM.

Consider `O=C1c2c(c3c4ccccc4[nH]c3c3ccc4ccccc4c23)C(=O)N1CCN1CCNCC1`, for which the GI50 is 1240 nM and the TGI is 2.53 µM.

As for `Cc1cc(S(=O)(=O)/N=C(/N)Nc2ccccc2O)c(SCc2ccccc2)cc1Cl`, the GI50 is 6990 nM and the TGI was 25.7 µM.

As for `O=C1CCC(N2Cc3cc(CNC(=O)C(F)(F)c4ccc(Cl)cc4)ccc3C2=O)C(=O)N1` (stereo not drawn), the GI50 is 320 nM and the TGI is above 100 µM.

Consider `O=C(O)CN1CCN(CC(=O)O)CC(=O)[O][Hg][O]C(=O)C1`, for which the GI50 is 17500 nM and the TGI worked out at 31.4 µM.

Consider `CCOC(=O)C1=C(C)N(c2ccc(Cl)cc2)[C@]2(C#N)C(O)=C(Cl)C(Cl)=C(O)[C@]12C#N`, for which the GI50 was 53800 nM and the TGI is above 100 µM.

Regarding `O=C(OCc1ccc2ccccc2n1)c1cn(C2CC2)c2cc(N3CCN(Cc4ccc5ccccc5n4)CC3)c(F)cc2c1=O`, the GI50 is above 100000 nM and the TGI was above 100 µM.

Turning to `O=C(O)c1ccc(C(=O)c2ccccc2)c(C(=O)O)c1`, the TGI was above 100 µM.

For another test, the system named is HOP-92 NSCLC. The experiment in a line: NCI tumour cell line growth inhibition, 48 h.
With `O=C1NC(=O)C(N2C(=O)c3ccccc3C2=O)CC1O` (stereo not drawn), the GI50 is above 100000 nM and the TGI is above 100 µM.

Regarding `COc1ccc2c(c1)N(CCO)C1=C(C(=O)OC1)C2c1cccc(F)c1` (stereo not drawn), the GI50 was 525 nM and the TGI was above 23.3 µM.

Consider `C/C(=C\c1ccc2ccccc2c1)[N+](=O)[O-]`, for which the GI50 was 1960 nM and the TGI came to 5.06 µM.

For `C=CC(=O)Nc1cccc(Oc2nc(Nc3ccc(N4CCN(C)CC4)cc3)nc3ccsc23)c1`, the GI50 is 801 nM and 1810 nM; the TGI was 6.47 µM and 4.97 µM.

Regarding `OCc1ccc(N2CCCC2c2ccccc2)cc1Cl` (stereo not drawn), the GI50 is 2060 nM and the TGI was 9.28 µM.

The molecule `COC1C=COC2(C)Oc3c(C)c(O)c4c(c3C2=O)/C(=N/C2CCC(O)OC2C)C=C(NC(=O)/C(C)=C\C(=O)C2CC2C(O)C(C)C(O)C(C)C(OC(C)=O)C1C)C4=O` (stereo not drawn) showed a TGI of 5.29 µM.

For `CC(=O)/C=C/c1cn(C(=O)OC(C)(C)C)c2ccc(Br)cc12`, the GI50 was 13400 nM and the TGI was found to be 35.8 µM.

As to `CCOc1ccccc1C(=O)N1CCN(c2cc(Cl)cc(Cl)c2)CC1`, the GI50 is 182 nM and the TGI stood at 12.9 µM.
